These results are taken from US5849721A, “Sulfated polysaccharides obtained from heparin, preparation process, pharmaceutical composition and use thereof” (Rhone-Poulenc Rorer S.A., priority 1992, dated 1998).

This series concerns bleeding time. Conditions: rat, in vivo, 2 mg/kg.

With heparin, the “increase in the bleeding time” value is listed as 13.
